A melting point compilation (Tetko et al.; mined from patent text by program, amines drawn as free bases though some values may be those of a salt)

| melting point | Structure (SMILES) |
| --- | --- |
| 133 to 134 °C | CCS(=O)(=O)N[C@H](C(=O)NCCc1ccc(OCc2ccccc2)cc1)C(C)C |
| 184 to 186 °C | Cc1cccc2c(=O)cc(O)c(=O)[nH]c12 |
| 72 to 73 °C | CCCCCCCCCCCCCC1CC(=O)NCCCNCCCCN1 (stereo unspecified) |
| > 230 °C | N#Cc1cccc2c1CCCC2=O |
| 168 to 171 °C | N[C@@H](CSc1ccccc1[N+](=O)[O-])C(=O)O |
| 151 to 153 °C | O=C1NC(=Cc2c[nH]c3ccccc23)C(=O)N1Cc1cc(C(F)(F)F)cc(C(F)(F)F)c1 |
| 98 to 100 °C | CCOC(=O)CNc1ncccc1NC(=O)c1ccccn1 |
| 195 to 196 °C | COc1cc(CNC(=O)c2oc(=O)c3ncccc3c2-c2ccc(C)cc2)cc(OC)c1OC |
| 195 to 197 °C | O=C(Nc1ccccc1F)c1ccccc1CN1C(=O)C2(COc3cc4c(cc32)CCO4)c2ccccc21 (stereo unspecified) |
| 149 to 151 °C | CC1C=CCCC1C(O)C(N)=O (stereo unspecified) |
| 166 to 167 °C | CCN(CC)CCC(=O)Nc1cccc2c1C(=O)c1c(NC(=O)CCN(CC)CC)cccc1C2=O |
| 169 to 171 °C | CC(O)C#CC1CCC2C3CCC4CC(O)CCC4(C)C3CCC12C (stereo unspecified) |
| 168 to 170 °C | N#CC1(C2(O)CCCCC2)Cc2cc3c(cc21)NCC3 (stereo unspecified) |
| 164 to 169 °C | CCc1ccc(Cc2c(O)nn(C(C)C)c2C)cc1 |
| 98 to 100 °C | Cc1cccc(C)c1NC(=O)CCCCCc1cccnc1 |
| 71 to 72.5 °C | COc1nc(CC(=O)OC(C)(C)C)c([N+](=O)[O-])cc1C |
| 233 to 235 °C | CC1CC2(NC(=O)NC2=O)c2cc(F)ccc2O1 (stereo unspecified) |
| 144 to 147 °C | CCCCCCNC(=O)Nc1cccc(Oc2ccc3nc(COc4ccc(CC5SC(=O)NC5=O)cc4)n(C)c3c2)c1 (stereo unspecified) |
| 133 to 135 °C | CCOC1OC(COC(C)=O)C(OC2OC(COC(C)=O)C(OC(C)=O)C(OC(C)=O)C2OC(C)=O)C(OC(C)=O)C1OC(C)=O (stereo unspecified) |
| > 300 °C | Cn1ncc2[nH]c3cccc(-c4cccc(O)c4)c3c(=O)c21 |
| 196 to 197 °C | CC(=O)N(C)c1cccc(-c2ccc3nnc(N)n3n2)c1 |
| 122 to 125 °C | CONC(=O)NC1CCCc2ccccc21 (stereo unspecified) |
| 130 to 132 °C | Oc1cc(-c2ncnc(C(F)(F)F)c2Cl)c(F)cc1Cl |
| 156 to 157 °C | Cc1ccc(C(=O)Nc2c(NC(=O)CN(C)CC3OCCO3)ccc3c2C(=O)c2ccccc2C3=O)cc1 |
| 104 to 106 °C | CC(C)(COc1ncc(C(F)(F)F)cc1Cl)C(=O)C(Oc1ccc(F)cc1)n1cncn1 (stereo unspecified) |

| melting point | Structure (SMILES) |
| --- | --- |
| 114 to 115 °C | CCOc1nn(Cc2ccc(OCc3csc(-c4ccccc4)n3)cc2)cc1CCC(=O)O |
| 173 to 174 °C | COC(=O)c1cc(COc2nn(-c3ccccc3)cc2C=O)ccc1OCc1nc(-c2ccco2)oc1C |
| 97 to 99 °C | Cc1c(C)c2c(c(C)c1NCc1ccccc1)C(c1cccc(C3OCCO3)c1)CO2 (stereo unspecified) |
| 115 to 116 °C | CCOC(=O)NC1=NCC(c2ccc(OCC)cc2)N1C (stereo unspecified) |
| 235 to 254 °C | N#Cc1ccc(C=Cc2ccc(-c3ccccc3)cc2)cc1 |
| 209 to 210 °C | Cn1c2cccc(Br)c2c2c(CC(=O)N3CCCC3)nn(-c3ccccc3)c(=O)c21 |
| 94 to 99 °C | CCc1ccc(-c2ccc(NC(=O)OC(C)(C)C)c([N+](=O)[O-])c2)cc1 |
| 209 to 211 °C | Cc1cc(NCc2ccc(-c3ccccc3-c3nnn(C(c4ccccc4)(c4ccccc4)c4ccccc4)n3)cc2)c(I)c(C)n1 |
| 114 to 115 °C | CSc1cccc(-c2ccccc2N)c1 |
| 147 to 148 °C | C#CCOc1noc2ccc(N3C(=O)C4=C(CCCC4)C3=O)cc12 |
| 102 to 103 °C | CC(C)C(NS(=O)(=O)c1ccc(Cl)s1)c1cccn1Cc1ccccc1 (stereo unspecified) |
| > 270 °C | Cc1nc2cc(Sc3cccc4cnccc34)c([N+](=O)[O-])cc2c(=O)[nH]1 |
| 112 °C | CCOc1ccc(-c2nc(-c3cccc(C(O)CO)n3)cs2)cc1OCC (stereo unspecified) |
| 109 to 110 °C | COc1ccc(S(=O)(=O)C[N+](=O)[O-])c2ccccc12 |
| 198 to 199 °C | CC(C)Cn1c(=O)n(C)c(=O)c2cc(Cn3cnc4ccccc43)sc21 |
| 124 to 125 °C | COC(=O)CC(NC(=O)c1cccc(OC)c1)c1ccc(OC)c(OC)c1 (stereo unspecified) |
| 204 to 206 °C | O[C@H]1CC[C@H](n2cnc(-c3ccc(F)cc3)c2-c2ccnc(Nc3ccccc3)n2)CC1 |
| 56 to 58 °C | O=C1CCc2c(OCCCl)cccc21 |
| 264 to 265 °C | CCCOc1ccccc1C1=NC(=O)C2=NC(C)=NC2=N1 |
| 179 to 180 °C | NC(=O)c1cc([N+](=O)[O-])cc(Br)n1 |
| 116 to 119 °C | CC(=O)NCCC1CCc2c(F)cc3nn(C)cc3c21 (stereo unspecified) |
| > 285 °C | O=C(NN=Cc1c(O)c(O)cc2ccccc12)c1cc2ccccc2cc1O |
| 290 to 294 °C | C=C(C)Cn1cnc2c(N)nc3ccccc3c21 |
| 337 to 338 °C | Nc1ccc2c(c1)C(=O)c1cc(N)ccc1C2=O |
| 270 to 273 °C | Cn1c2c(c(=O)n(-c3cc(C(=O)O)c(Cl)cc3F)c1=O)CCC2 |

| melting point | Structure (SMILES) |
| --- | --- |
| 134 to 137 °C | CC1(C)COC(=O)N1c1nc(-c2ccc(Cl)c(Cl)c2)cs1 |
| 191 to 193 °C | CO/C(=C\C=C\c1cc2cc(C(F)(F)F)ccc2[nH]1)C(=O)O |
| 192 to 194 °C | Nc1nc2ccccc2c2c1nc(CCCOc1ccccc1)n2CCCNC(=O)c1ccccc1 |
| > 300 °C | CC(=NNc1ccc(C2=NNC(=O)CC2)cc1)c1cscn1 |
| 148 to 150 °C | CC(C)(C)c1cc(C=Cc2cc(C=Cc3cc(C(C)(C)C)cc(C(C)(C)C)c3)cc(C=C(Br)Br)c2)cc(C(C)(C)C)c1 |
| 196 to 198 °C | COc1cc(F)ccc1CCN1c2nc(-c3ccncn3)cc(=O)n2CCC1(C)C |
| 210 to 212 °C | Cc1ccc(N2CCN(C)CC2)c2c1CC[C@@H](NC(=O)c1ccc(Cl)cc1)C2 |
| 198 °C | O=C(O)C1=CS[C@@H]2/C(=C\c3cc4c(s3)CCN(Cc3ccccc3)C4)C(=O)N12 |
| 228 to 230 °C | COc1ccc(-c2cc3ccc(OC)cc3[nH]2)cc1 |
| 163 °C | O=C(Oc1ccc(-c2ccc(O)c([N+](=O)[O-])c2)cc1)c1ccccc1 |
| 146 to 148 °C | CC1CCN(c2cc3nc(C(C)(C)C)sc3cc2N)CC1 |
| 119 to 121 °C | COc1cc(Nc2c(C#N)cnc3cc(/C=C/CCN(C)C)c(OC)cc23)c(Cl)cc1Cl |
| 149 to 150 °C | Cc1c(C)c2c(c(C)c1N)C(c1ccc(-c3ccccc3)cc1)CO2 (stereo unspecified) |
| 51 to 53 °C | CCN(CC)C(=O)Oc1ccc2ccccc2c1 |
| 151 to 153 °C | CCc1nc(C(=O)O)c(CC)c(C)c1C(c1cc(F)ccc1F)S(=O)(=O)c1ccc(F)cc1 (stereo unspecified) |
| 97 to 98 °C | CCOc1ccc(S(=O)(=O)N(Cc2ccc(C#N)cc2)[C@@H](CC)c2ccccc2)cc1 |
| 220 °C | OC(Cn1cnnc1)(Cn1cncn1)Cn1cncn1 |
| 84 °C | CCCCC(=O)NC(C(=O)OCC)=C(N)SCCOC(C)=O |
| 76 to 77 °C | C=CCOC(=O)C(C(=O)NC1C(=O)N2C1SC(C)(C)C2C(=O)OCC=C)=C1SCCS1 (stereo unspecified) |
| 108 to 109 °C | CCOC(=O)C1(NC(C)=O)CC(C)(C)NC(C)(C)C1 |
| 132 to 133 °C | CC1=C(C(=O)OCCN(Cc2ccccc2)Cc2ccccc2)C(c2ccccc2C(F)(F)F)c2c(ccnc2OC(C)C)N1 (stereo unspecified) |
| 130 to 132 °C | COC(=O)c1ccccc1-c1ccc(OC)cn1 |
| 238 to 239 °C | CC(=O)Nc1c([N+](=O)[O-])cc(Br)cc1[N+](=O)[O-] |
| 154 °C | Nc1ccc(CCN2CCN(c3nsc4ccccc34)CC2)cc1 |
| 109 to 110 °C | O=C(O)CCCCCCCCCCCCCCC(=O)ON1C(=O)c2ccccc2C1=O |

| melting point | Structure (SMILES) |
| --- | --- |
| 258 °C | COC(=O)CCCc1nc(Cl)c2c(n1)[nH]c1ccccc12 |
| 120 to 121 °C | O=C(O)CCN1CCN(C2=Nc3ccccc3Sc3ccc(Cl)cc32)CC1 |
| 178 to 181 °C | CCCOc1ccccc1C(=O)Nc1cc(SC)ccc1C(N)=O |
| 123 to 124 °C | CCn1c2cc(C)ccc2c2c3ccccc3ccc21 |
| 120 to 122 °C | COc1cccc(C=O)c1OS(=O)(=O)c1ccccc1 |
| 208 to 210 °C | CCNc1ncn(-c2ccccc2C)c(=O)n1 |
| 74 to 75 °C | CC(OC(=O)Nc1ccccc1)c1ccccc1[N+](=O)[O-] (stereo unspecified) |
| 77 to 80 °C | Cc1cccc2c(=O)c3ccccc3ccc12 |
| 69 to 71 °C | C=C(c1ccccc1)c1cccc(C(C)C(=O)OC)c1 (stereo unspecified) |
| 117 to 118 °C | O=C(NOCC(O)CO)c1ccc(F)c(F)c1Nc1ccc(I)cc1F (stereo unspecified) |
| 183 to 184 °C | COc1ccc(C(=O)Nc2cc([N+](=O)[O-])ccc2Br)cc1OC |
| 225 to 226 °C | Cc1nc2ccc(NS(=O)(=O)c3cccc(Cl)c3C)cc2nc1C |
| > 300 °C | Nc1nc2c(c(=O)n1N)Cc1nc(N)n(N)c(=O)c1C2 |
| 144 to 150 °C | CSc1nc(Cl)c(C#N)c(N2CCc3ccccc3CC2)n1 |
| 75.5 to 76.5 °C | COc1cc(C(C)C)c2c(c1)S(=O)(=O)N(COP(=O)(OCc1ccccc1)OCc1ccccc1)C2=O |
| 93 °C | COCOC(c1cc(CBr)ccc1I)(C(F)(F)F)C(F)(F)F |
| 69 °C | O=S(=O)(c1ccc(Cl)s1)N(CCO)CCO |
| 113 °C | O=Cc1c2ccccc2cc2sccc12 |
| 172 to 174 °C | CN(CCNc1ncc(Cc2ccc(Cl)cc2)c(=O)[nH]1)c1ccccn1 |
| 190 to 196 °C | CCOC(=O)c1[nH]cc2c1NC1=C(C(=O)CNC1)C2c1ccc(Sc2nc3cc(F)c(F)cc3[nH]2)o1 (stereo unspecified) |
| 58 to 60 °C | Cc1cc(CCCCC(=O)O)no1 |
| 316 to 321 °C | O=c1[nH]c2cc(Br)c(F)c([N+](=O)[O-])c2[nH]c1=O |
| 284 °C | O=C1NN=C(c2ccc3c(c2)C2(CCCS2)C(=O)N3)CS1 (stereo unspecified) |
| 146 to 148 °C | CCS(=O)c1cn(C)cc(-c2cccc(C(F)(F)F)c2)c1=O (stereo unspecified) |

| Structure (SMILES) | melting point |
| --- | --- |
| NCCc1csc(N)n1 | 69 to 71 °C |
| O=c1c2c(Cl)cccc2nc(C(S)c2ncnc3[nH]cnc23)n1-c1ccccc1Cl (stereo unspecified) | 234 °C |
